Patent publication US20030064380A1, “Anergy-regulated molecules” (The Center For Blood Research, Inc., priority 2001, published 2003)

What was measured:
D5 cells = test: transcription of inducible genes in ionomycin-treated D5 cells on second stimulation (RNase protection); type: cell-based, murine; conditions: second stimulation with anti-CD3/anti-CD28 or antigen/APC
Procedure: (§1) Total cellular RNA was purified from resting cells or cells stimulated with APC and antigen or anti-CD3 plus anti-CD28 for 4 h, using Ultraspec reagent (Biotecx) and analyzed using the RiboQuant multiprobe RNase protection kit and specific multi-set probes (Pharmingen) according to the manufacturer's instructions. Jurkat cells were transfected by electroporation in serum-free medium with pulses of 250 V and 960 μF with […] of pEGFPN1 (Clontech) or pNLS-NFAT1 (ST2+5+8) (Okamura et al., (2000) Mol. Cell. 6: 539-550). RNA from transiently transfected Jurkat cells was obtained after selecting transfected cells for expression of a cotransfected murine CD4 plasmid using magnetic beads (Dynal).
The murine antigen-specific Th1 clone D5 was used to set up the model of clonal anergy developed by Schwartz and coworkers (Schwartz, (1996) J. Exp. Med. 184: 1-8).

Th1 cells = test: cytokine mRNA induction in primary Th1 cells after tolerising pretreatment; type: cell-based, mice
Procedure: The murine Th1 cell clone D5 (Ar-5) was cultured as previously described (Agarwal and Rao, (1998) Immunity 9: 765-775). Primary CD4+T cells were isolated from lymph nodes and spleen of NFAT1−/− or wild type DO11.10 transgenic mice using magnetic beads (Dynal), and differentiated in vitro by stimulating for one week with irradiated APC and 1 μg/ml OVA as previously described (Agarwal and Rao, (1998) Immunity 9: 765-775). Jurkat and Phoenix Ecotropic cells were cultured in Dulbecco's modified Eagle's medium supplemented with 10% fetal calf serum, 10 mM HEPES and 2 mM glutamine.
as §1
Thus the net effect of a tolerising stimulus on T cells is to skew the cytokine response towards production of the immunosuppressive cytokine […], while down-regulating production of multiple other cytokines and chemokines associated with a productive immune response.
The anergised cells were fully responsive to PMA and ionomycin, stimuli which bypass the membrane-proximal steps of TCR signal transduction.

D5 or primary T cells = test: apoptosis assays of ionomycin-stimulated T cells; type: cell-based, murine; conditions: several independent assays
Procedure: Apoptosis was detected by the Tunel method using the In situ Cell Death Detection kit (Boheringer) following manufacture's instructions. Stained cells were analyzed on a FACSCAN (Beckton-Dickinson).
(§2) Of particular interest was the fact that several of the ionomycin-induced genes encoded proteins involved (or potentially involved) in protein degradation. Candidate genes in this category included caspase-3, SOCS-2 and Traf5 (FIG. 6B). Caspase-3 is an enzyme for which commercial reagents are readily available. Tests were conducted to determine whether caspase-3 was activated and functional in ionomycin-pretreated T cells. […] Further work will be necessary to establish whether proteolysis occurs in specific intracellular compartments relevant to TCR signal transduction or whether other signaling proteins are substrates for proteolysis in anergic cells.

caspase-3 [1] = test: Western blotting of ionomycin-treated T cells; type: cell-based, murine
Procedure: Total cellular extracts were prepared by boiling cell pellets directly in SDS containing loading buffer to prevent proteolysis during cell lysis. Antibodies against caspase-3 (Santa Cruz) and active caspase-3 (Cell Signaling) were used. The polyclonal antibody 67.1 against NFAT1 has been described (Okamura et al., (2000) Mol. Cell. 6: 539-550).
as §2

caspase-3 [2] = test: RNase protection assay of caspase-3 mRNA; type: cell-based, murine; conditions: D5 T cells
Procedure: as §1, §2

[3] = primary Th1 cells, pretreatment, subsequent stimulation with antigen

`C[C@H](CCC(=O)O)C[C@H](C)C[C@H](C)C(=O)/C=C(\O)[C@H](C)C[C@H](C)C/C=C/[C@@H](C)[C@@H](O)[C@@H](C)[C@@H](O)C[C@@H]1CC[C@@](C)([C@H]2CC[C@@](C)([C@@H](C)O)O2)O1` [Ionomycin, ionomycin] was tested, and the “transcription of inducible genes including IL-2, IFN-γ, TNF-α, GM-CSF and MIP-1α” value (D5 cells) was “markedly decreased”, the “induction of IL-2 and IFN-γ mRNA” value (Th1 cells; NFAT1−/− Th1 cells, after pretreatment) was “perceptible induction” and the “effect on Fas-L mRNA” value (Th1 cells; [3]) was “less effect”. The “induction of IL-2, IFN-γ, IL-10, TNF-α and MIP-1α mRNAs” value (Th1 cells; [3]) was “pronounced decrease”, the “induction of L-2 and IFN-γ mRNA” value (Th1 cells; wildtype DO11.10 Th1 T cells, pretreatment) was “markedly decreased” and the apoptosis (D5 or primary T cells) was “no detectable apoptosis”. The “caspase-3 protein (procaspase 3, p20 and active p17 forms)” value (caspase-3 [1]; ionomycin-treated T cells, 6 h to 16-18 h) was “induced at the protein level and activated”, the “cleavage of Vav-1, Gads and PKC-theta” value (caspase-3 [1]; treated D5 cells, Western blots) was “minor cleavage” and the “caspase-3 mRNA level” value (caspase-3 [2]) was “upregulated”.
